Assay results as given in patent US20250296938A1, “Compounds that Interact with the Ras Superfamily for the Treatment of Cancers, Inflammatory Diseases, Rasopathies, and Fibrotic Disease” (SHY Therapeutics, LLC, priority 2018, published 2025).
Where two headings read alike, the source gives them in different places.

Target: T1, KRas G12D mutant (Homo sapiens, UniProt P01116, G12D)
T1 construct: fused on or other part: His tag, used for capture on nickel-coated plates
Test: Ras GTP binding domain inhibition assay (Cy3-GTP/Cy5-GTP competition)
Conditions: for IC50: cell-free, 100 nM Cy3-GTP or Cy5-GTP
Protocol: The following method was developed as specific assay for the following proteins: KRas wild type, KRas Q61H mutant, KRas G12C mutant, KRas G12D mutant, HRas wild type, Rac-1, and Rho-A.
• 25 mM Tris-HCl, pH 7.4 • 27 mM KCl • 137 mM NaCl • 1 mM MgCl2 • 1 mM DTT
• 50 mM Tris-HCl, pH 7.0 • 1 mM MgCl2 • 1 mM DTT
The small GTPases proteins: KRas wild type. KRas Q61H mutant, KRas G12C mutant, KRas G12D mutants, HRas wild type, Rac-1, and Rho-A were expressed as His-tagged proteins. In addition, the Guanosine nucleotide Exchange Factor (GEF) Sos protein (residues 556-1049) was expressed as a His-tagged protein. In cells, the guanine nucleotide exchange factor Sos protein promotes activation of Ras proteins by stimulating an exchange of GDP for GTP. The inclusion of Sos to the Ras GTP binding domain inhibition assay may be considered as an alternative representation of physiological cellular conditions for evaluating the inhibitory activity of some of the tested small molecules.
For the assay, all purified small GTPases proteins were diluted in Buffer-I or Buffer-II to a final concentration of 10-30 μg/mL. 200 μL of each diluted protein was added to a nickel-coated 96-well plate and incubated overnight at 4° C. Then the protein solution was discarded and 200 μL of Buffer-I or Buffer-II was added to each well in the presence of 1% DMSO. Compounds to be tested were added to the protein-coated wells at final concentration of 20 μM, and incubated for 3 hours at room temperature with and without […] of Sos added to the final hour of the incubation. When performing IC50 measurements a serial dilution of all tested concentrations was added. Then Cy3-GTP or Cy5-GTP was added to each well to a final concentration of 100 nM. The labeled GTP was incubated for 45 minutes at room temperature. Following GTP incubation, wells were washed 3× in Buffer-I or Buffer-II and 200 μL of Buffer-I or Buffer-II was added to each well. Following washes, the amount of bound labeled-GTP was measured using a SpectraMax M3 (Molecular Devices).

[1] = with SOS, read-out: KRas G12D mutant + SOS: % inh.
[2] = without SOS, read-out: KRas G12D mutant: % inh.

| SMILES | inhibition at 20 µM [1] [%] | inhibition at 20 µM [2] [%] | IC50 [µM] |
| --- | --- | --- | --- |
| COc1cccc(-c2sc3nc(-c4nccn4C)nc(N[C@@H]4CC[C@H](OC)C4)c3c2C)c1F [drawing 1029] | 51 to 75 | 51 to 75 |  |
| COc1cccc(-c2sc3nc(-c4nc(C)cn4C)nc(N[C@@H]4CC[C@H](OC)C4)c3c2C)c1F [drawing 1031] | 26 to 50 | 1 to 25 |  |
| CO[C@H]1CC[C@@H](Nc2nc(-c3nc(C)cn3C)nc3sc(-c4cccc5[nH]ncc45)c(C)c23)C1 [drawing 1032] | 26 to 50 | 26 to 50 |  |
| CO[C@H]1C[C@@H](Nc2nc(-c3nccn3C)nc3sc(C(=O)N4CCOCC4)c(-c4ccccc4)c23)C1 [drawing 1070] |  |  | 5 to 10 |
| CO[C@H]1CC[C@@H](Nc2nc(-c3nccn3C)nc3sc(C(=O)NC(C)C)c(-c4ccccc4)c23)C1 [drawing 1072] |  |  | 5 to 10 |
| COCCNC(=O)c1sc2nc(-c3nccn3C)nc(N[C@@H]3CC[C@H](OC)C3)c2c1-c1ccccc1 [drawing 1073] |  |  | 5 to 10 |
| CO[C@H]1CC[C@@H](Nc2nc(-c3nccn3C)nc3sc(C(=O)N4CCCC4)c(-c4ccccc4)c23)C1 [drawing 1074] |  |  | 5 to 10 |
| CO[C@H]1CC[C@@H](Nc2nc(-c3nccn3C)nc3sc(C(=O)N4CCOCC4)c(-c4ccccc4)c23)C1 [drawing 1075] |  |  | 5 to 10 |

Further lines, results first:

| inhibition at 20 µM [1] [%] | inhibition at 20 µM [2] [%] | IC50 [µM] | SMILES |
| --- | --- | --- | --- |
|  |  | 1 to 4.99 | CO[C@H]1CC[C@@H](Nc2nc(-c3nccn3C)nc3sc(-c4ccn(C(C)C)n4)c(C4=CC=CCC=C4)c23)C1 [drawing 1063] |
|  |  | 5 to 10 | Cc1c(-c2ccn(C)n2)sc2nc(-c3nccn3C)nc(NCCCS(C)(=O)=O)c12 [drawing 1064] |
|  |  | 5 to 10 | Cc1c(-c2ccn(C)n2)sc2nc(-c3nccn3C)nc(NCCCC(=O)N(C)C)c12 [drawing 1065] |
|  |  | 5 to 10 | Cc1c(-c2ccn(C)n2)sc2nc(-c3nccn3C)nc(NCCOC(=O)N(C)C)c12 [drawing 1066] |
|  |  | 5 to 10 | CO[C@H]1CC[C@@H](Nc2nc(-c3nccn3C)nc3sc(-c4ccn(C(C)C)n4)c(C)c23)C1 [drawing 1067] |
|  |  | 5 to 10 | CO[C@H]1C[C@@H](Nc2nc(-c3nccn3C)nc3sc(C(=O)NC(C)C)c(-c4ccccc4)c23)C1 [drawing 1068] |
|  |  | 5 to 10 | COCCNC(=O)c1sc2nc(-c3nccn3C)nc(N[C@H]3C[C@@H](OC)C3)c2c1-c1ccccc1 [drawing 1069] |
